SMILES strings stand for the structures. pIC50: −log10 of the molar value.

The target of this assay is Insulin-regulated aminopeptidase (Homo sapiens). Kind of assay: Inhibition of recombinant human IRAP using L-AMC as substrate preincubated for 30 mins followed by substrate addition and measured after 1 hr by fluorescence based assay.
On to `O=C(O)c1cccc(S(=O)(=O)N2CCC(F)CC2)c1`, for which the pIC50 (in general, the IC50 on a negative log10 scale, so that one unit is a factor of ten) is 4.82. Take `O=C1N=C(S)SC1=Cc1ccc(C(=O)O)cc1`: the pIC50 is 4.39. Regarding `O=C(O)c1cccc(S(=O)(=O)N2CCCC2)c1`, the pIC50 was 4.06. On to `O=C(NO)c1ccc(S(=O)(=O)N2CCCCC2)s1`, for which the pIC50 is 4.22. The same measure for `O=C(Cc1ccc(S(=O)(=O)N2CCCCC2)s1)NO`: 4.79. Consider `O=C(O)c1cccc(S(=O)(=O)N2CCCCC2)c1`, for which the pIC50 was 4.84. The same measure for `CN1C(=O)SC(Cc2ccc(C(=O)O)cc2)C1=O` (configuration not stated): 4.88.

(Values after BindingDB's records for PubMed 39369482 (Univ. Lille).)
